Results: patent US20230057359A1, “NOVEL USE OF STEVIOL” (SUNTORY HOLDINGS LIMITED, priority 2019, published 2023)

What was measured:
Type in all cases: cell-based
[1] = test system: adipocytes differentiated from normal human subcutaneous preadipocytes; assay: Lipolysis test in adipocytes (free glycerol in culture supernatant); conditions: 10 μM isoproterenol, 24 hours, No addition=100%
Description: Normal human subcutaneous preadipocytes were precultured using the growth medium in the same manner as in Example 1. The cells were detached using 0.25% trypsin-EDTA, seeded at 10,000 cells/100 μL/well to a 96-well plate using the growth medium, and cultured overnight in a CO2 incubator. On the next day, the medium was replaced with the differentiation medium (100 μL), and the cells were cultured for 10 days in a CO2 incubator to induce their differentiation into adipocytes. On the fourth and seventh days after the differentiation induction, the medium was replaced with a fresh differentiation medium (100 μL). Next, the medium was replaced with a differentiation medium supplemented with varying concentrations of steviol (10, 30 or 100 μg/mL, dissolved in 0.1% DMSO (final concentration)), and the cells were cultured for 24 hours in a CO2 incubator. Then, a free glycerol level in a culture supernatant was measured using Adipolysis Assay Kit (Cat. No. 10009381, Cayman Chemical Co.) according to the manufacturer's protocol. For the measurement, absorbance (540 nm) was measured using a plate reader (VARIOSKAN FLASH, Thermo Fisher Scientific Inc.), and a relative free glycerol concentration was calculated. A differentiation medium supplemented with 10 μM isoproterenol (ISP) was used as a positive control, and a vehicle control (DMSO) composed of a differentiation medium supplemented with 0.1% DMSO (final concentration) and a no-addition control composed of only the differentiation medium were used as negative controls. Significant difference among the test groups to be compared (no-addition group vs positive control group, vehicle control group vs steviol addition group) was tested by the Student's t test. The two-tailed test was conducted, and P<0.05 was regarded as having significant difference.

[2] = test system: adipocytes differentiated from normal human subcutaneous preadipocytes; assay: Sugar uptake test in adipocytes (intracellular 2DG6P, Glucose Uptake-Glo); conditions: 100 μM acadesine (AICAR), 4 hours, No addition=100%
Description: Normal human subcutaneous preadipocytes were precultured using the growth medium in the same manner as in Example 1. The cells were detached using 0.25% trypsin-EDTA, seeded at 10,000 cells/100 μL/well to a 96-well plate using the growth medium, and cultured overnight in a CO2 incubator. On the next day, the medium was replaced with the differentiation medium (100 μL). The cells were cultured for 10 days in a CO2 incubator to induce their differentiation into adipocytes. On the fourth and seventh days after the differentiation induction, the medium was replaced with a fresh differentiation medium (100 μL). Next, the medium was replaced with 100 μLL of a serum-free medium (PBM-2 medium supplemented with 2 mM L-glutamine, 50 μg/mL gentamycin, and 37 ng/mL amphotericin-B, Cat. No. PT-8002, Lonza Group AG), and the cells were cultured for 18 hours in a CO2 incubator. Subsequently, the medium was replaced with 100 μL of a glucose-free serum-free medium (DMEM, no glucose, Cat. No. 11966025, Thermo Fisher Scientific Inc.) supplemented with varying concentrations of steviol (10, 30 or 100 μg/mL, dissolved in 0.1% DMSO (final concentration)), and the cells were cultured for 4 hours in a CO2 incubator. A glucose-free serum-free medium supplemented with 100 μM acadesine (AICAR, Cat. No. A9978, Sigma-Aldrich Co., LLC) was used as a positive control, and a vehicle control composed of a glucose-free serum-free medium supplemented with 0.1% DMSO (final concentration) and a no-addition control composed of only a glucose-free serum-free medium were used as negative controls. After culture, intracellular 2-deoxyglucose-6-phosphate (2DG6P, 2-deoxyglucose (2DG) phosphorylation product) level was measured by the following procedures using Glucose Uptake-Glo Assay kit (Cat. No. J1341, Promega Corp.). The medium of each well was replaced with a DPBS solution (50 μL) supplemented with 1 mM 2DG. After incubation at room temperature for 10 minutes, a stop buffer (25 μL), a neutralization buffer (25 μL), and a 2DG6P detection reagent (100 μL) were added thereto. After incubation at room temperature for 60 minutes, luminescence intensity was measured using a plate reader (VARIOSKAN FLASH, Thermo Fisher Scientific Inc.), and relative luminescence intensity was regarded as a relative intracellular 2DG6P level. Significant difference among the test groups to be compared (no-addition group vs positive control group, vehicle control group vs steviol addition group) was tested by the Student's t test. The two-tailed test was conducted, and P<0.05 was regarded as having significant difference.

HepG2 cells [3] = assay: Fat accumulation test in hepatocytes (oil red staining, oleic acid); conditions: 2 mM metformin, 0.2 mM oleic acid, 24 hours, DMSO=100%
Description: Normal human subcutaneous preadipocytes were precultured using the growth medium in the same manner as in Example 1. The cells were detached using 0.25% trypsin-EDTA, seeded at 10,000 cells/100 μL/well to a 96-well plate using a growth medium, and cultured overnight in a CO2 incubator. On the next day, the medium was replaced with 100 μL of a differentiation medium supplemented with varying concentrations of steviol (12.5, 25, 50, 100 or 200 μg/mL, dissolved in 0.1% DMSO (final concentration)). The cells were cultured for 10 days in a CO2 incubator to induce their differentiation into adipocytes. On the fourth and seventh days after the differentiation induction, the medium was replaced with a fresh medium (100 μL) having the same composition as above. A differentiation medium supplemented with 25 mM LiCl (Cat. No. SML0559, Sigma-Aldrich Co., LLC) was used as a positive control, and a differentiation medium supplemented with 0.1% DMSO (final concentration) was used as a negative control. Cells cultured in a growth medium were used as an untreated control (Untreated). The cells thus cultured were subjected to oil red staining. Specifically, the cells were washed twice with 100 μL of DPBS (Cat. No. 14190250, Thermo Fisher Scientific Inc.). Then, the cells were fixed (room temperature, 10 min) in 100 μL of a 10% formalin solution (Cat. No. 061-00416, FUJIFILM Wako Pure Chemical Corp.). The cells were washed twice with 100 μL of DPBS, then incubated for 1 minute in 100 μL of 60% 2-propanol (Cat. No. 166-04836, FUJIFILM Wako Pure Chemical Corp.) that replaced the medium, and stained for 15 minutes in 100 μL of an oil red staining solution (Cat. No. 00625, Sigma-Aldrich Co., LLC) that replaced the 2-propanol solution. The cells were washed once with 100 μL of 60% 2-propanol and washed twice with 100 μL of DPBS. Then, cell images were taken in 100 μL of DPBS. After subsequent replacement with 120 μL of 100% 2-propanol, oil red was extracted by incubation for 5 minutes, and 100 μL of the extracts was transferred to each well of a fresh 96-well plate. Absorbance (520 nm) was measured using a plate reader (VARIOSKAN FLASH, Thermo Fisher Scientific Inc.), and a relative fat accumulation level was calculated. Significant difference of differentiation non-induced group vs differentiation induced group (negative control group) was tested (two-tailed), and P<0.05 was regarded as having significant difference. Also, significant difference of negative control group vs steviol addition group/positive control group was tested (two-tailed) by the Dunnett test, and P<0.05 was regarded as having significant difference. […] HepG2 cells were precultured using the growth medium in the same manner as in Example 5. The cells were detached using 0.25% trypsin-EDTA, seeded at 30,000 cells/100 μL/well to a 96-well plate using the growth medium, and cultured overnight in a CO2 incubator. On the next day, the medium was replaced with 100 μL of a test medium (DMEM (high glucose) supplemented with 0.2 mM oleic acid (Cat. No. 03008, Sigma-Aldrich), 10% FBS and 1% penicillin-streptomycin) supplemented with varying concentrations of steviol (12.5, 25, 50, 100 or 200 μg/mL, dissolved in 0.1% DMSO (final concentration)). The cells were cultured for 24 hours in a CO2 incubator. A test medium supplemented with 2 mM metformin (Cat. No. M2009, Tokyo Chemical Industry Co., Ltd.) was used as a positive control (Metformin), and a vehicle control composed of a test medium supplemented with 0.1% DMSO (final concentration) was used as a negative control (DMSO). Cells cultured in a test medium containing no oleic acid was used as an untreated control (Untreated). The cells thus cultured were subjected to oil red staining in the same manner as in Example 3, followed by photographing and calculation of a relative fat accumulation level. […]

HepG2 cells [4] = assay: TG accumulation test in hepatocytes (Adipogenesis Assay Kit, oleic acid); conditions: 2 mM metformin, 0.2 mM oleic acid, 24 hours, DMSO=100%
Description: HepG2 cells were precultured using the growth medium in the same manner as in Example 5. The cells were detached using 0.25% trypsin-EDTA, seeded at 30,000 cells/100 μL/well to a 96-well plate using the growth medium, and cultured overnight in a CO2 incubator. On the next day, the medium was replaced with 100 μL of a test medium (DMEM (high glucose) supplemented with 0.2 mM oleic acid (Cat. No. 03008, Sigma-Aldrich), 10% FBS and 1% penicillin-streptomycin) supplemented with varying concentrations of steviol (12.5, 25, 50, 100 or 200 μg/mL, dissolved in 0.1% DMSO (final concentration)). The cells were cultured for 24 hours in a CO2 incubator. A test medium supplemented with 2 mM metformin (Cat. No. M2009, Tokyo Chemical Industry Co., Ltd.) was used as a positive control (Metformin), and a vehicle control composed of a test medium supplemented with 0.1% DMSO (final concentration) was used as a negative control (DMSO). Cells cultured in a test medium containing no oleic acid was used as an untreated control (Untreated). The cells thus cultured were subjected to oil red staining in the same manner as in Example 3, followed by photographing and calculation of a relative fat accumulation level. An intracellular triglyceride (TG) level in cells separately cultured under the same conditions as in the cells employed in the oil red staining was quantified using Adipogenesis Assay Kit (BioVision Inc.) according to the manufacturer's protocol. Absorbance (570 nm) was measured using a plate reader (VARIOSKAN FLASH, Thermo Fisher Scientific Inc.), and a relative TG level was calculated. Significant difference of untreated group vs fat accumulation induction group (negative control group) was tested (two-tailed) by the Student's t test as to the relative fat accumulation level and the relative TG level, and P<0.05 was regarded as having significant difference. Also, significant difference of negative control group vs steviol addition group/positive control group was tested (two-tailed) by the Dunnett test, and P<0.05 was regarded as having significant difference. The results of the fat accumulation test are shown in Table 6 and FIG. 6, and the results of the TG accumulation test are shown in Table 7 and FIG. 7.

[5] = test system: normal human subcutaneous preadipocytes differentiated into adipocytes; assay: Fat accumulation test in adipocytes (oil red staining); conditions: 25 mM LiCl, 10 days, DMSO=100%
Description: Normal human subcutaneous preadipocytes were precultured using the growth medium in the same manner as in Example 1. The cells were detached using 0.25% trypsin-EDTA, seeded at 10,000 cells/100 μL/well to a 96-well plate using a growth medium, and cultured overnight in a CO2 incubator. On the next day, the medium was replaced with 100 μL of a differentiation medium supplemented with varying concentrations of steviol (12.5, 25, 50, 100 or 200 μg/mL, dissolved in 0.1% DMSO (final concentration)). The cells were cultured for 10 days in a CO2 incubator to induce their differentiation into adipocytes. On the fourth and seventh days after the differentiation induction, the medium was replaced with a fresh medium (100 μL) having the same composition as above. A differentiation medium supplemented with 25 mM LiCl (Cat. No. SML0559, Sigma-Aldrich Co., LLC) was used as a positive control, and a differentiation medium supplemented with 0.1% DMSO (final concentration) was used as a negative control. Cells cultured in a growth medium were used as an untreated control (Untreated). The cells thus cultured were subjected to oil red staining. Specifically, the cells were washed twice with 100 μL of DPBS (Cat. No. 14190250, Thermo Fisher Scientific Inc.). Then, the cells were fixed (room temperature, 10 min) in 100 μL of a 10% formalin solution (Cat. No. 061-00416, FUJIFILM Wako Pure Chemical Corp.). The cells were washed twice with 100 μL of DPBS, then incubated for 1 minute in 100 μL of 60% 2-propanol (Cat. No. 166-04836, FUJIFILM Wako Pure Chemical Corp.) that replaced the medium, and stained for 15 minutes in 100 μL of an oil red staining solution (Cat. No. 00625, Sigma-Aldrich Co., LLC) that replaced the 2-propanol solution. The cells were washed once with 100 μL of 60% 2-propanol and washed twice with 100 μL of DPBS. Then, cell images were taken in 100 μL of DPBS. After subsequent replacement with 120 μL of 100% 2-propanol, oil red was extracted by incubation for 5 minutes, and 100 μL of the extracts was transferred to each well of a fresh 96-well plate. Absorbance (520 nm) was measured using a plate reader (VARIOSKAN FLASH, Thermo Fisher Scientific Inc.), and a relative fat accumulation level was calculated. Significant difference of differentiation non-induced group vs differentiation induced group (negative control group) was tested (two-tailed), and P<0.05 was regarded as having significant difference. Also, significant difference of negative control group vs steviol addition group/positive control group was tested (two-tailed) by the Dunnett test, and P<0.05 was regarded as having significant difference.

Structure (SMILES): CC(C)NCC(O)c1ccc(O)c(O)c1 (centres unmarked) [ISP, isoproterenol, reference compound]
- Relative lipolysis level (%) [1]: 184.4%

Structure (SMILES): NC(=O)c1ncn([C@@H]2O[C@H](CO)[C@@H](O)[C@H]2O)c1N [AICAR, acadesine, reference compound]
- Relative luminescence intensity (%) (relative intracellular 2DG6P level) [2]: 194.9%

Structure (SMILES): CN(C)C(=N)N=C(N)N [Metformin, metformin, reference compound]
- Relative fat accumulation level (%) (HepG2 cells [3]): 79.4%
- Relative TG level (%) (HepG2 cells [4]): 76.0%

Structure (SMILES): [Cl-].[Li+] [LiCl, reference compound]
- Relative fat accumulation level (%) [5]: 56.3%
